Data on 25 compounds can be found in ChEMBL document CHEMBL1143457, “Benzyl ether structure-activity relationships in a series of ketopiperazine-based renin inhibitors” (Bioorg Med Chem Lett, 2005).

In one series the target is T1, Renin (Homo sapiens, UniProt P00797).
T1 sequence (P00797 whole entry): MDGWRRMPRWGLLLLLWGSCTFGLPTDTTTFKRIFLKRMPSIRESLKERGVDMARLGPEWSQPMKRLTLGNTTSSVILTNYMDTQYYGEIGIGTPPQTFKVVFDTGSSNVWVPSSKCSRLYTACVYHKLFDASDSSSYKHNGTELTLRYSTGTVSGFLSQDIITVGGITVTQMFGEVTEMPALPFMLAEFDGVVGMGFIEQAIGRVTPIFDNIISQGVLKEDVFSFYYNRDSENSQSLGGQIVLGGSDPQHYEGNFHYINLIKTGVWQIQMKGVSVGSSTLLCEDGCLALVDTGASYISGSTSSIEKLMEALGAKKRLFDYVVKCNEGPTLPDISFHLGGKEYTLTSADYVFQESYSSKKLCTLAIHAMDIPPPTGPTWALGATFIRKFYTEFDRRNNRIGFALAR
The experiment in a line: Inhibitory activity against renin in fluorescent tGFP assay.

Series [1] is described as follows: Apparent solubility was measured at PH 6.5 by nepholometric method. Type of series: ADME. Conditions: buffer.
Series [2] can be described thus: Distribution coefficient at PH 7.4 was determined. Type of series: physicochemical. The settings on record: octanol/water.
A further series concerns the target CYP3A4 (Homo sapiens, UniProt P08684). The experiment in a line: Inhibition of CYP3A4 at 3 uM was measured using fluorogenic substrate 7-Benzyloxy-4-(trifluoromethyl)-coumarin. Type of series: ADME. Conditions: probe 7-Benzyloxy-4-(trifluoromethyl)-coumarin.

Values after ≈ are worked out from the molar mass of the structure shown.

Chain of CYP3A4 (P08684 whole entry): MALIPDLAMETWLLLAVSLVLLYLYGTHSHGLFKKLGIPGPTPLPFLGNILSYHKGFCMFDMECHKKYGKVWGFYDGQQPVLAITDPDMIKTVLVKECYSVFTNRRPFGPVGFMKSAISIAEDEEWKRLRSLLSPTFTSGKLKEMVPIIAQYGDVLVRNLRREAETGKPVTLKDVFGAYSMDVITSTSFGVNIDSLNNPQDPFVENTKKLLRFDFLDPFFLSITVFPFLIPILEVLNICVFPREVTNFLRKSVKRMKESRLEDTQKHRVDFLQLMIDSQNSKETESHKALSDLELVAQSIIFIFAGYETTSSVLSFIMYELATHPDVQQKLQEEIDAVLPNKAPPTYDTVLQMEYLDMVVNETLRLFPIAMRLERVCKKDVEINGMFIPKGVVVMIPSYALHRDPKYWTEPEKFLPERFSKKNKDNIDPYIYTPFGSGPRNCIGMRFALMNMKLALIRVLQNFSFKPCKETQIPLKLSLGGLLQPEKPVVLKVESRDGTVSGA

By IC50 is commonly meant the point on the concentration scale where inhibition reaches its midpoint. As for `COc1ccccc1COCCCOc1ccc(N2C(=O)CNC[C@@H]2COCc2ccncc2)cc1`, the IC50 against Renin was > 1000 nM.

`COc1ccccc1COCCCOc1ccc(N2C(=O)CNC[C@@H]2COCc2ccc(C)c(Cl)c2)cc1` yielded an IC50 on Renin of 260 nM.

As to `COc1ccccc1COCCCOc1ccc(N2C(=O)CNC[C@@H]2COCc2ccc(Cl)cc2)cc1`, the IC50 on Renin turned out to be 300 nM.

`COc1ccccc1COCCCOc1ccc(N2C(=O)CNC[C@@H]2COCc2ccc(C(F)(F)F)cc2)cc1` returned a 50% inhibitory concentration (IC50) against Renin of 6800 nM.

As usually defined, the solubility (kinetic) is the concentration staying in solution when a stock, usually in DMSO, is diluted into the medium. In general, logD refers to lipophilicity at a set pH, counting ionised and neutral species. A low value points to lower lipophilicity. By inhibition is commonly meant the share of the control response that was lost under treatment. As to `COc1ccccc1COCCCOc1ccc(N2C(=O)CNC[C@@H]2COCc2ccc(F)c(C(F)(F)F)c2)cc1`, the IC50 at Renin is 140 nM. For the same compound, the solubility (kinetic) in series [1] was found to be 7 µg/mL (≈ 12.1 µM). Further, the logD in series [2] worked out at 3.7. This compound returned an inhibition at 3 µM against CYP3A4 of 87%.

`COc1ccccc1COCCCOc1ccc(N2C(=O)CNC[C@@H]2COCc2ccc(F)c(C)c2)cc1`: the IC50 against Renin was found to be 270 nM.

At Renin, `COc1ccccc1COCCCOc1ccc(N2C(=O)CNC[C@@H]2COCc2ccc(F)c(F)c2)cc1` returned an IC50 of 250 nM.

On Renin, `COc1ccccc1COCCCOc1ccc(N2C(=O)CNC[C@@H]2COCc2cccc(C(F)(F)F)c2F)cc1` came in with an IC50 of 270 nM. The IC50 values of the last two compounds are within 1.5-fold of each other.

As for `COc1ccccc1COCCCOc1ccc(N2C(=O)CNC[C@@H]2COc2ccc3c(c2)N(CCNC(C)=O)CCC3)cc1`, at Renin, half-maximal inhibition (IC50) required 0.4 nM.

Consider `COc1ccccc1COCCCOc1ccc(N2C(=O)CNC[C@@H]2COCc2ccc(F)cc2Cl)cc1`, for which, on Renin, inhibition was half-maximal at 410 nM (IC50).

The compound `COc1ccccc1COCCCOc1ccc(N2C(=O)CNC[C@@H]2COCc2ccccc2F)cc1` registered an IC50 at Renin of 230 nM.

`COc1ccccc1COCCCOc1ccc(N2C(=O)CNC[C@@H]2COCc2ccc(Cl)c(C(F)(F)F)c2)cc1`: the midpoint of inhibition at Renin, the IC50, lay at 120 nM. Besides, the kinetic solubility in series [1] amounted to 3 µg/mL (≈ 5.06 µM). The logD in series [2] worked out at 3.7. The compound further had an inhibition at 3 µM on CYP3A4 of 97%.

The compound `COc1ccccc1COCCCOc1ccc(N2C(=O)CNC[C@@H]2COCc2ccccc2OC)cc1` returned an IC50 against Renin of 900 nM.

For `COc1ccccc1COCCCOc1ccc(N2C(=O)CNC[C@@H]2COCc2cccc(C(F)(F)F)c2)cc1`, the IC50 against Renin amounted to 230 nM.

The compound `COc1ccccc1COCCCOc1ccc(N2C(=O)CNC[C@@H]2COCc2cccc(Cl)c2)cc1` yielded an IC50 on Renin of 330 nM.

Compound `COc1ccccc1COCCCOc1ccc(N2C(=O)CNC[C@H]2COCc2ccc(Cl)c(C(F)(F)F)c2)cc1` returned an IC50 against Renin of 594 nM.

As to `COc1ccccc1COCCCOc1ccc(N2C(=O)CNC[C@H]2COCc2cccnc2)cc1`, the IC50 against Renin was > 10000 nM.

On to `COc1ccccc1COCCCOc1ccc(N2C(=O)CNC[C@@H]2COCc2cccc(OC(F)(F)F)c2)cc1`, for which, on Renin, the IC50 came out at 410 nM.

The compound `COc1ccccc1COCCCOc1ccc(N2C(=O)CNC[C@@H]2COCc2cccnc2)cc1` yielded an IC50 at Renin of 120 nM. The solubility (kinetic) in series [1] stood at 100 µg/mL (≈ 203 µM). Besides, in series [2], the logD turned out to be 2.9. For the same compound, on CYP3A4, the inhibition at 3 µM was found to be 44%.

Compound `COc1cccc(COC[C@H]2CNCC(=O)N2c2ccc(OCCCOCc3ccccc3OC)cc2)c1` had an IC50 against Renin of 600 nM.

Compound `COc1ccccc1COCCCOc1ccc(N2C(=O)CNC[C@@H]2COCc2cc(Cl)cc(Cl)c2)cc1` showed an IC50 against Renin of 180 nM.

As for `COc1ccccc1COCCCOc1ccc(N2C(=O)CNC[C@@H]2COCc2ccccn2)cc1`, the IC50 against Renin was > 1000 nM.

Take `COc1ccccc1COCCCOc1ccc(N2C(=O)CNC[C@@H]2COCc2ccccc2C(F)(F)F)cc1`: at Renin, the IC50 was determined as 270 nM.

`COc1ccccc1COCCCOc1ccc(N2C(=O)CNC[C@@H]2COCc2cc(F)cc(F)c2)cc1`: on Renin, the IC50 was determined as 1600 nM. This IC50 lies about 5.9-fold higher than the previous one.

Compound `COc1ccccc1COCCCOc1ccc(N2C(=O)CNC[C@@H]2COCc2cccc(C#N)c2)cc1` displayed an IC50 at Renin of 1200 nM.
